# Data: ChEMBL document CHEMBL4483862, “Open-source discovery of chemical leads for next-generation chemoprotective antimalarials” (2018)
# Test system: Plasmodium berghei
# Assay: Luciferase/luciferin-expressing antifolate-resistant parasites were used to infect a culture of HepG2 cells that were pre-incubated with compounds. Infected hepatocytes emit light due to the luciferase reaction. Assay results are presented as the percent inhibition of light emission compared to control. […]
# Type: functional
# Settings: sporozoite; for IC50: read-out: LUCIFERASE INFECTION ASSAY - IC50; for IC90: read-out: LUCIFERASE INFECTION ASSAY - IC90
Structure (SMILES),IC50 [µM],IC90 [µM]
O=C(CN1CCN(c2cccc(Cl)c2)CC1)Nc1nccs1,> 9.8,> 9.8
C=C(C)CC(NCc1ccco1)c1ccc(OC)cc1 (stereo not given),8.94,> 12.2
CC1CCCC(C)N1C(=O)Nc1cccc(Cl)c1 (stereo not given),> 12.4,> 12.4
CC(C)Cc1nc(N2CCN(C(=O)c3ccco3)CC2)c(C#N)c2c1CCCC2,3.18,3.93
CCOC(=O)c1sc(NC(=O)c2ccc(C)s2)cc1C,> 10,> 10
Cc1cc2nc(NC3=NCN(Cc4cccnc4)CN3)nc(C)c2cc1C,> 9.13,> 9.13
C[C@H](NC(=O)[C@@H]1CSC2c3ccccc3C(=O)N21)C(=O)NC1CCCCC1 (stereo not given in full),> 8.52,> 8.52
O=C(O)CCCNC(=O)CCn1nnc2ccccc2c1=O,> 10.8,> 10.8
Cc1nn2c(NCCN(C)C)cc(C(C)C)nc2c1-c1ccccc1,> 9.78,> 9.78
OCCNCCNCc1c(OCc2ccc(F)cc2)ccc2ccccc12,> 8.96,> 8.96
CCCN1CCc2c(sc3c2c(NCCc2ccccc2)nc2nnnn23)C1,> 8.39,> 8.39
O=c1nc2n(c3ccccc13)CC/C2=C\c1ccc(Cl)cc1,> 10.7,> 10.7
CCn1c2ccccc2c2cc(CNCCNC(=O)c3nonc3N)ccc21,> 8.72,> 8.72
NC(=O)c1c(NC(=O)NCc2ccncc2)sc2c1CCCC2,> 9.99,> 9.99
CNC(=O)C(Sc1nnc(Nc2ccc(C(C)C)cc2)s1)C(C)=O (stereo not given),> 10,> 10
Cc1cc(NC(=O)C(c2ccc(Cl)cc2)C(C)C)ccc1Br (stereo not given),> 10,> 10
CCC(C)(C)c1ccc(Oc2ccc(NC(=O)CSc3cccc[n+]3[O-])cc2)cc1,> 10,> 10
O=C(Nc1nonc1-c1cccs1)c1sc2cccc(Cl)c2c1Cl,3.26,4.63
Cc1nc(=O)c2c([nH]1)NC(=O)CC2c1ccccc1C (stereo not given),> 12.3,> 12.3
Oc1cc(OCCN2CCCCC2)ccc1-c1n[nH]cc1-c1ccccc1,> 9.08,> 9.08
CC(C)c1ccc(OCC(=O)NC2CCCCCC2)cc1,> 11.4,> 11.4
Cn1c(SCC(=O)Nc2cccc(C(=O)O)c2)nnc1-c1cnccn1,> 8.91,> 8.91
CC(C)c1nc(NCCCN2CCOCC2)c(C#N)c2c1CCCC2,> 9.64,> 9.64

Structure (SMILES),IC50 [µM],IC90 [µM]
O=c1c2c([nH]c3c(-c4ccccc4)c(Cc4ccccc4)nn13)CCCC2,> 9.28,> 9.28
O=C(COc1ccc(F)cc1)Nc1ccc2c(=O)c3cccc(Cl)c3oc2c1,> 8.3,> 8.3
Cc1ccc2c(Cl)c(C(=O)Nc3nonc3-c3ccccc3)sc2c1,7.41,8.14
O=C(CC12CC3CC(CC(C3)C1)C2)NN=CC1C(=O)N(Cc2ccccc2)C(=O)c2ccccc21 (stereo not given),> 10,> 10
O=C1CC(c2cccc(Cl)c2Cl)c2c([nH]c(-c3ccccc3)nc2=O)N1 (stereo not given),> 8.54,> 8.54
c1ccc(-c2csc3nc(-c4ccccn4)nc(NC4CC4)c23)cc1,2.32,4.93
N#Cc1ccc(C=C(C(=O)NCc2ccccc2)C(=O)NCc2ccccc2)cc1,> 10,> 10
Nc1c(-c2ccccc2)[nH]c2ccccc12,> 15.8,> 15.8
Cc1c(Cl)cccc1N=C(SCC(=O)N(C)C1CCCCC1)C(C#N)c1nc2ccccc2s1 (stereo not given),> 10,> 10
CN(CCO)C(=O)Nc1sc2c(c1C(N)=O)CCC2,> 11.6,> 11.6
CCC1CCCCN1C(=O)COC(=O)c1cc(C(C)(C)C)cc(C(C)(C)C)c1 (stereo not given),> 10,> 10
Cc1n[nH]c(Nc2cc(Cl)cc(Cl)c2)nc1=O,> 12.2,> 12.2
CCN(Cc1ccccc1)S(=O)(=O)c1cc(C(=O)OCc2ccccc2Cl)ccc1OC,> 10,> 10
COC(=O)c1c(NC(=O)C(=O)NCCN(C)C)sc2c1CCCC2,> 9.34,> 9.34
COc1ccc(NC(=O)Nc2cccc(C(F)(F)F)c2)cc1,> 10.6,> 10.6
Cc1n[nH]c(Nc2ccc(Oc3ccccc3)cc2)nc1=O,> 11.2,> 11.2
CCCn1c(-c2ccccc2)nc2c(c(=O)c3ccccc3n2C)c1=O,3.2,3.93
C=CCOc1cccc(C(=O)N(C)Cc2nc(-c3ccc(Cl)cc3)no2)c1,> 8.6,> 8.6
Cc1cccc(-c2nc3c(c(SCCN4CCCC4)n2)COC(C)(C)C3)c1,> 8.6,> 8.6
O=C1CCCC2=C1C(c1ccccc1)C=C1c3cc4c(cc3CCN12)OCCCO4 (stereo not given),> 8.26,> 8.26
C=C(C)COc1ccc(-c2onc(C)c2-c2ccc(OC)c(OC)c2)c(O)c1,0.64,7.35
O=C(Nc1ccc2c[nH]nc2c1)C1=NN(c2ccccc2)C(=O)CC1,> 9.9,> 9.9
CC(=O)c1cc2c(N)c(C(=O)OCc3cccc4ccccc34)sc2nc1C,> 10,> 10

Structure (SMILES),IC50 [µM],IC90 [µM]
Cc1ccc(O)c(-c2cc(C(=O)Nc3ccccc3C(F)(F)F)[nH]n2)c1,> 9.13,> 9.13
Cc1nc(=O)c2c([nH]1)NC(=O)CC2c1cc(F)ccc1F (stereo not given),> 11.3,> 11.3
CCC1Oc2ccccc2C(=O)N(Cc2ccccc2F)C1=O (stereo not given),> 10.5,> 10.5
Cn1c(=O)oc2ccc(S(=O)(=O)Nc3ccc4c(c3)CCCC4)cc21,> 9.21,> 9.21
C/N=c1\scc(-c2ccc(OC(F)F)cc2)n1/N=C/c1ccccc1[N+](=O)[O-],> 10,> 10
COc1cc2[nH]c(C(=O)Nc3cccc(C(F)(F)F)c3)cc2c(OC)c1OC,7.63,8.28
COc1ccc(NCc2csc(-c3ccccc3)n2)cc1Cl,> 10,> 10
O=c1nc(Nc2cccc(C(F)(F)F)c2)[nH]nc1Cc1ccccc1,1.23,> 9.53
CCOc1ccccc1C(=O)CN1C(=O)COc2ccccc2C1=O,> 9.72,> 9.72
O=C1CC(c2cccc3ccccc23)c2c([nH]c(-c3ccccc3)nc2=O)N1 (stereo not given),> 8.98,> 8.98
CCN(CC)c1ncnc2c1oc1nc(CC(C)C)c3c(c12)CCC3,> 9.75,> 9.75
CCN1CCN(c2nc(CC(C)C)c3c(c2C#N)CCCC3)CC1,> 10.1,> 10.1
Cn1c2ccccc2c(=O)c2c(=O)n(CCc3ccccc3)c(-c3ccco3)nc21,2.64,5.38
COc1ccc(C(=O)c2sc(Nc3ccccc3C)c(C(=O)Nc3ccccc3C)c2N)cc1,5.95,> 10
c1csc(-c2nnc(Sc3ncnc4sccc34)[nH]2)c1,> 10,> 10
COCC(C)NC(=O)c1cccnc1-c1nc2ccccc2s1 (stereo not given),> 10.1,> 10.1
CC(C)(C)c1ccc(C(=O)Nc2nonc2-c2ccc(F)cc2)cc1,> 9.72,> 9.72
O=C(Nc1sc2ccccc2c(=O)c1-c1ccccc1)C1CCCCC1,> 9.08,> 9.08
COc1ccc(-c2nn(-c3ccccc3)cc2/C=C/C(=O)N2CCc3ccccc32)cc1OC,> 10,> 10
Cc1ccc(-c2cc(C(=O)Nc3nnc(C(C)C)s3)[nH]n2)c(O)c1C,> 9.23,> 9.23
COc1ccc(-n2nc(C)c3c2NC(=O)CC3c2ccc(O)cc2)cc1 (stereo not given),> 9.45,> 9.45
COc1ccccc1NC(=S)N/N=C(C)/C=C/C1C(C)=CCCC1(C)C (stereo not given),> 10,> 10
Cc1sc2ncn3nc(-c4ccc(=O)[nH]n4)nc3c2c1C,> 11.1,> 11.1

Structure (SMILES),IC50 [µM],IC90 [µM]
COc1ccc(NC(=O)c2ccc(C)c(F)c2)cc1OCc1cccnc1,6.13,> 10
CCOc1ccccc1C(=O)N(C)Cc1nc(-c2ccccc2)no1,> 9.78,> 9.78
CC(C)CNc1cc(N2CCN(C)CC2)c(N)c2c1C(=O)c1ccccc1C2=O,> 8.41,> 8.41
O=C1/C(=C/Nc2ccccc2O)c2ccccc2C(=O)N1c1ccccc1Cl,> 10,> 10
Cc1c(/C=N/N)c2ccccn2c1C#N,> 10,> 10
CC/C=C1/CC(=O)N(c2ccc(OC(C)=O)cc2)C1=O,> 12.1,> 12.1
COc1ccc(CCC(=O)NCc2cc(=O)n(C)c(=O)n2C)cc1,> 9.96,> 9.96
CCCn1c(NC(=O)c2sc3ccccc3c2Cl)nc2ccccc21,> 10,> 10
Cc1ccc(-n2c(C)cc(/C=C(\C#N)c3nc4ccccc4s3)c2C)cc1C,> 10,> 10
Cn1c(=O)n(C2CCCCC2)c(=O)c2ccccc21,> 12.8,> 12.8
O=c1c2ccccc2sc2nc(-c3ccccc3)n(Cc3ccccc3)c(=O)c12,> 8.32,> 8.32
N#Cc1c(SCc2ccc(F)cc2)nc(N2CCOCC2)c2c1CCCC2,> 8.61,> 8.61
Cc1cc2oc(C(=O)Nc3nonc3-c3ccc(F)cc3)c(C)c2cc1Cl,> 8.55,> 8.55
CCn1c(SCC(=O)Nc2cc(Cl)ccc2O)nnc1-c1ccncc1,> 8.46,> 8.46
CC1(C)Cc2c(C#N)c(Nc3ccccc3)nc(NCCCO)c2CO1,> 9.36,> 9.36
COc1ccccc1NCC(=O)N/N=C1/C(=O)Nc2ccc(C(C)C)cc21,> 10,> 10
COc1ccc(Cc2n[nH]c(Nc3cccc(Cl)c3)nc2=O)cc1,1.11,1.36
CC(C)Oc1ccccc1Nc1nc(=O)cn[nH]1,> 13.4,> 13.4
C[C@H](NC(=O)c1sc2ccccc2c1Cl)c1nnc2ccccn12,> 9.25,> 9.25
Cc1ccc(C(CCNCc2cccs2)c2ccco2)cc1 (stereo not given),1.96,2.72
O=C1C(=O)N(Cc2ccccc2Cl)c2ccc(F)cc21,> 11.4,> 11.4
